The record followed here is patent US8530433B2, “Use of icariside II in manufacture of products for preventing or treating male or female sexual dysfunction” (Bjo-Biomed Ltd, priority 2008, dated 2013).

The subject of test [1] is Porcine vascular endothelial cells (PAE). As to the kind of experiment: NOS enzyme activity in vascular endothelial cells (PAE), NOS kit. It counts as cell-based. The settings on record: LNNA 10^-5 M. How it is done:
(§1) Porcine vascular endothelial cells (PAE) were provided by the Institute of Urology, Peking University. The determination of the effect of icariside II on NOS activity in the endothelial cell is conducted using NOS kit (Cayman Chemical company, Ann Arbor, Mich., USA). Vascular endothelial cells (PAE) were treated with different concentrations of icariside II (0, 10^−9, 10^−8, 10^−7, 10^−6, 10^−5 and 10^−4 M) (sildenafil as the control group). 180 μl lysate was added into each culture well. 20 μl supernatant was used for protein concentration assay with BCA protein kit. And, 100 μl supernatant was analyzed for NOS activity with NOS kit (Cayman Chemical company, Ann Arbor, Mich., USA). NOS activity (units/mg)=[(valueNos-measure−valueNOS-blank)÷(38.3×10^6)]×[(2.15+supernatant volume)÷(15×supernatant volume)]÷[protein concentration of each Petri dish].

Another test has as its system PAE-EGFR cells. As to the kind of experiment: NOS enzyme activity in EGFR expressing PAE-EGFR cells, NOS kit. It counts as cell-based, porcine. To be noted: PAE-EGFR cells; LNNA 10^-5 M. How it is done: as §1, with “dish]. 1) The EGFR gene was subcloned into pGFP plasmid to construct pGFP-EGFR expression vector. With Liposome transfection reagent (Qigen), pGFP-EGFR was transfected into PAE cells. After the selection with 1800 μg/ml of G418, a single cell clone was selected. Western blot confirms the stable expression of EGFR in the PAE-EGFR cells.” for “dish].”

Test [2] has as its system Primary human corpus cavernosum smooth muscle cells (CCSMCs). As to the kind of experiment: NOS activity in corpus cavernosum smooth muscle cells. It counts as cell-based. To be noted: LNNA 4×10^−4 M. How it is done: Primary human corpus cavernosum smooth muscle cells ([…]) were provided by the Andrology Center of Peking University. The […] of the third passage were cultured in six well plates for two days. Then the cells were treated with icariside II or the sildenafil at a concentration of 0, 10^-9, 10^-8, 10^-7, 10^-6, 10^-5 M; or treated with icariside II (0, 10^-9, 10^-8, 10^-7, 10^-6, 10^-5 M) in the presence or absence of LNNA (4×10^-4 M). The control group was cultured with DMEM only. After 24 hours, the cells were washed three times and 180 μl lysis buffer was added into each well; 60 μl cell suspension was taken for protein concentration assay with BCA protein kit; 100 μl cell suspension was taken for NOS activity test. NOS activity (units/mg protein)=[(valueNOS-measure-valueNOS-blank)÷(38.3×10^6)]×[(2.15+supernatant volume)÷(15×S supernatant volume)]÷[protein concentration in each well].

`NC(=NCCC[C@H](N)C(=O)O)N[N+](=O)[O-]` [LNNA, reference compound]: the “effect on the regulatory effect of icariside II on endothelial cell NOS activity” value in test [1] (p<0.05) is “significantly inhibited”. The “NOS baseline activity after treatment with NOS inhibitor” value in test [1] (PAE cells) was found to be 2.74±0.269 u/mg; with PAE-EGFR cells, 3.27±0.319 u/mg. For the same molecule, in test [2], the “NOS activity after LNNA treatment” value is listed as 0.3 units/mg protein.
